# Reference: patent US8633206B2, “Pyrrolo[2,3-D]pyrimidine compounds” (Pfizer Inc., priority 2009, dated 2014)
# Columns and labels:
# Assay type in all cases: biochemical
# JAK2 = JAK2 (Homo sapiens (Human), UniProt O60674); experiment: JAK enzymatic assay (peptide mobility shift), JAK2; conditions: recombinant JAK2 2 nM, JAKtide peptide, 150 minutes
# Text: (§1) Recombinant JAK1 (Catalog Number PV4775), JAK2 (Catalog Number PV4210) and JAK3 (Catalog Number PV3855) were purchased from (Invitrogen Corporation, Madison, Wis.). Tyk2 (His-Tyk2 (888-1182, C936S, C1142S)) used in this study was expressed and purified at Pfizer Laboratories. Adenosine 5′-triphosphate (ATP) was obtained from (Sigma Chemical Company, St. Louis, Mo.). […] Coating Reagent 3 was purchased from (Caliper Life Sciences, Hopkinton, Mass.).
# A peptide mobility shift assay was used to quantify the phosphorylation of the JAKtide (JAK2 and JAK3) or the IRS-1 peptide (JAK1 and Tyk2). Reactions were carried out in a 384-well plate (Matrical MP-101) in a 10 L total volume. […] Compounds were diluted serially in 100% dimethyl sulfoxide and tested in an 11 point dose response in duplicate or quadruplicate (200 nl of compound/DMSO was added per 10 L reaction). The reactions were initiated by the addition of enzyme to the final concentration of 2 nM JAK2, 1 nM JAK3, 12 nM Tyk2 or 20 nM JAK1. The assay was run for 240 minutes for JAK1, 150 minutes for JAK2, 90 minutes for JAK3 and 70 minutes for Tyk2. The assays were stopped at the specified times with 20 uL of 140 mM HEPES, 22.5 mM EDTA and 0.15% Coating Reagent 3. The plates were placed on a LabChip 3000 (LC3000) instrument from (Caliper Life Sciences) to measure the formation of phosphorylated peptide. Data was analyzed using Hits Well Analyzer Software from (Caliper Life Sciences) to obtain the amount of product formed.
# (§2) Data was then imported into an internal application where each data point is expressed as % inhibition based on uninhibited and no enzyme controls. Dose-response data is then fit using a 4 parameter logistic equation (Equation 1) to determine an IC50.
# JAK1 = JAK1 (Homo sapiens (Human), UniProt P23458); experiment: JAK enzymatic assay (peptide mobility shift), JAK1; conditions: recombinant JAK1 20 nM, IRS-1 peptide, 240 minutes
# Experimental: as §1, with “Tyk2 (His-Tyk2 (888-1182, C936S, C1142S)) used in this study was expressed and purified at Pfizer Laboratories.” left out
# (§3) Compounds were diluted serially in 100% dimethyl sulfoxide and tested in an 11 point dose response in duplicate or quadruplicate (200 nl of compound/DMSO was added per 10 L reaction). […] The assay was run for 240 minutes for JAK1, 150 minutes for JAK2, 90 minutes for JAK3 and 70 minutes for Tyk2. […] The plates were placed on a LabChip 3000 (LC3000) instrument from (Caliper Life Sciences) to measure the formation of phosphorylated peptide. Data was analyzed using Hits Well Analyzer Software from (Caliper Life Sciences) to obtain the amount of product formed.
# as §2
# JAK3 = JAK3 (Homo sapiens (Human), UniProt P52333); experiment: JAK enzymatic assay (peptide mobility shift), JAK3; conditions: recombinant JAK3 1 nM, JAKtide peptide, 90 minutes
# Experimental: as §1, with “Tyk2 (His-Tyk2 (888-1182, C936S, C1142S)) used in this study was expressed and purified at Pfizer Laboratories.” left out
# as §3, §2
# JAK1, sequence (P23458 whole entry): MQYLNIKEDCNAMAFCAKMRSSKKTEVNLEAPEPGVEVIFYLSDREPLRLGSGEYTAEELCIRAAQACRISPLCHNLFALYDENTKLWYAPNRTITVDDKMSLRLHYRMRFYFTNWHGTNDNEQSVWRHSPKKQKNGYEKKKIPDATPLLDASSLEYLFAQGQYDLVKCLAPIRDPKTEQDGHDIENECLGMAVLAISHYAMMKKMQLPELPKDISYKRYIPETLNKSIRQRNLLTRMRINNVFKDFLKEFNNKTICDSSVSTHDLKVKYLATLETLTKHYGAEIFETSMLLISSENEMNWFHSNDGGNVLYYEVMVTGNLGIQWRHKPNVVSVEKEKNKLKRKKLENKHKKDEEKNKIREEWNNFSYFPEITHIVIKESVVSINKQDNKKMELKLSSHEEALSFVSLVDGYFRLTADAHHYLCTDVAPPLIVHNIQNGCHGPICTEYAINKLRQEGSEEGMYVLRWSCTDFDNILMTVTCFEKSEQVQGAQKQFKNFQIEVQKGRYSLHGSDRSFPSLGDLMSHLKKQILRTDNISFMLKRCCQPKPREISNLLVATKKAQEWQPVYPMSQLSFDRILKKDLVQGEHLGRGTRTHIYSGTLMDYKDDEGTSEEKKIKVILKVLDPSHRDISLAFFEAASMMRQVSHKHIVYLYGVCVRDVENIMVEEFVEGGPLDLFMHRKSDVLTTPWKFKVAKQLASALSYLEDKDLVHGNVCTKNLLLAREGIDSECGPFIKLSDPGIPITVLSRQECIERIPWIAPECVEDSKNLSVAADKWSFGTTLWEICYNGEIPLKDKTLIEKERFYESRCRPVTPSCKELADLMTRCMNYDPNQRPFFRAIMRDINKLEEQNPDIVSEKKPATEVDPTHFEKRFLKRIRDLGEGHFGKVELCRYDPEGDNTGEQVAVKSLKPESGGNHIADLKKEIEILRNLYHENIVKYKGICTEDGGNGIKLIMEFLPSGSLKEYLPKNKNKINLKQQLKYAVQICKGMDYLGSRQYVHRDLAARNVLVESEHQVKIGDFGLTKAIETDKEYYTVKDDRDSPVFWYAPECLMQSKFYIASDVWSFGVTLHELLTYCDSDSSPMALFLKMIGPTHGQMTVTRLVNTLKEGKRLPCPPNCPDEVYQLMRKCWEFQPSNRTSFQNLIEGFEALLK
# JAK3, sequence (P52333 781-1124): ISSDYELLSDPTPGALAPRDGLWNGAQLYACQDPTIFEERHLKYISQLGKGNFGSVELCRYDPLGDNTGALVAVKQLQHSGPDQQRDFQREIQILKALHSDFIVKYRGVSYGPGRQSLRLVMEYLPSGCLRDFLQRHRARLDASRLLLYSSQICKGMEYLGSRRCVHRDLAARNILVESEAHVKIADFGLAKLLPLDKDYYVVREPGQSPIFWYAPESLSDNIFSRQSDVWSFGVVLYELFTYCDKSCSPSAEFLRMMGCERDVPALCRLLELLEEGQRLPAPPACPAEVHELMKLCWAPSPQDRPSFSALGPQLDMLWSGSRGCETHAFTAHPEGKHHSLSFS
# JAK2, sequence (O60674 808-1132): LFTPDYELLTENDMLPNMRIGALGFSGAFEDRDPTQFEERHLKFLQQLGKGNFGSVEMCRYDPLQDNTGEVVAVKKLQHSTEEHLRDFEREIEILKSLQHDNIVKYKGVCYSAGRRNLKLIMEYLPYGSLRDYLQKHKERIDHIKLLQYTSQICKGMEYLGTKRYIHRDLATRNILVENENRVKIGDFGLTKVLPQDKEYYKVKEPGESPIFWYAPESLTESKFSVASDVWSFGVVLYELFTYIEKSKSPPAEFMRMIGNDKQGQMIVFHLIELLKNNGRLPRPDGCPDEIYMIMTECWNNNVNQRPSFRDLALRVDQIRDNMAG
IC50 (JAK2) [nM],IC50 (JAK1) [nM],IC50 (JAK3) [nM],Structure (SMILES)
26.2,5.3,234,"CN(c1ncnc2[nH]ccc12)[C@H]1CC[C@H](CS(=O)(=O)N2CCCC(F)C2)CC1 (stereo partly drawn) [Example 10, N-(trans-4-{[(3-fluoro-piperidin-1-yl)sulfonyl]-methyl}cyclohexyl)-N-methyl-7H-pyrrolo[2,3-d]-pyrimidin-4-amine]"
–,42.3,2270,"CN(c1ncnc2[nH]ccc12)[C@H]1CC[C@H](CS(=O)(=O)N2CCC(N)CC2)CC1 [Example 11, N-(trans-4-{[(4-amino-piperidin-1-yl)sulfonyl]-methyl}cyclohexyl)-N-methyl-7H-pyrrolo[2,3-d]-pyrimidin-4-amine]"
27.3,3.76,355,"CN(c1ncnc2[nH]ccc12)[C@H]1CC[C@H](CS(=O)(=O)N2CC[C@H](CC#N)C2)CC1 [Example 32, {(3R)-1-[({trans-4-[methyl(7H-pyrrolo[2,3-d]pyrimidin-4-yl)amino]-cyclohexyl}methyl)sulfonyl]-pyrrolidin-3-yl}-acetonitrile]"
0.106,0.0263,0.768,"CN(c1ncnc2[nH]ccc12)[C@H]1CC[C@H](CS(=O)(=O)N2CCC[C@@H](OP(=O)(O)O)C2)CC1 [Example 141, (3R)-1-[({trans-4-[methyl(7H-pyrrolo[2,3-d]pyrimidin-4-yl)amino]cyclohexyl}methyl)sulfonyl]piperidin-3-yl dihydrogen phosphate]"
52.6,11.1,447,"CN(c1ncnc2[nH]ccc12)[C@H]1CC[C@H](CS(=O)(=O)N2CC[C@@H](CC#N)C2)CC1 [Example 35, {(3S)-1-[({trans-4-[methyl(7H-pyrrolo[2,3-d]pyrimidin-4-yl)amino]cyclohexyl}methyl)-sulfonyl]pyrrolidin-3-yl}acetonitrile]"
–,6.47,457,"C[C@H]1CCCN1S(=O)(=O)C[C@H]1CC[C@H](N(C)c2ncnc3[nH]ccc23)CC1 [Example 86, N-methyl-N-(trans-4-{[(2-methylpyrrolidin-1-yl)-sulfonyl]methyl}cyclohexyl)-7H-pyrrolo[2,3-d]-pyrimidin-4-amine]"
–,11.7,491,"CN(c1ncnc2[nH]ccc12)[C@H]1CC[C@H](CS(=O)(=O)N2CCC(CS(=O)(=O)CC3CC3)CC2)CC1 [Example 49, N-(trans-4-{[(4-{[(cyclopropylmethyl)sulfonyl]-methyl}piperidin-1-yl)sulfonyl]-methyl}-cyclohexyl)-N-methyl-7H-pyrrolo[2,3-d]pyrimidin-4-amine]"
–,14.8,3280,"CN(c1ncnc2[nH]ccc12)[C@H]1CC[C@H](CS(=O)(=O)N2CCCC(CN3CCCC3)C2)CC1 (stereo partly drawn) [Example 8, N-methyl-N-[trans-4-({[3-(pyrrolidin-1-ylmethyl)-piperidin-1-yl]sulfonyl}-methyl)cyclohexyl]-7H-pyrrolo[2,3-d]pyrimidin-4-amine]"
–,6.5,51.2,"C[C@@H]1C[C@@H](CS(=O)(=O)N2CC[C@@H](CO)C2)CC[C@@H]1N(C)c1ncnc2[nH]ccc12 [Example 132, {(3R)-1-[({(1S,3R,4S)-3-methyl-4-[methyl(7H-pyrrolo[2,3-d]pyrimidin-4-yl)amino]cyclohexyl}methyl)-sulfonyl]pyrrolidin-3-yl}methanol]"
–,19.4,587,"CN(c1ncnc2[nH]ccc12)[C@H]1CC[C@H](CS(=O)(=O)N2CCS(=O)(=O)CC2)CC1 [Example 126, N-(trans-4-{[(1,1-dioxidothiomorpholin-4-yl)sulfonyl]methyl}cyclo-hexyl)-N-methyl-7H-pyrrolo[2,3-d]pyrimidin-4-amine]"
–,6.45,222,"CN(c1ncnc2[nH]ccc12)[C@H]1CC[C@H](CS(=O)(=O)N2CCC[C@H](C(N)=O)C2)CC1 [Example 59, 1-[({trans-4-[methyl(7H-pyrrolo[2,3-d]pyrimidin-4-yl)amino]cyclohexyl}methyl)-sulfonyl]piperidine-3-carboxamide]"
–,12.5,143,"CN(c1ncnc2[nH]ccc12)[C@H]1CC[C@H](CS(=O)(=O)N2CC(F)C2)CC1 [Example 112, N-(trans-4-{[(3-fluoroazetidin-1-yl)-sulfonyl]-methyl}-cyclohexyl)-N-methyl-7H-pyrrolo[2,3 d]pyrimidin-4-amine]"
–,0.00508,0.0421,"CC1CC(CS(=O)(=O)N2CC[C@H](CO)C2)CCC1N(C)c1ncnc2[nH]ccc12 (stereo partly drawn) [Example 133, ((3S)-1-((3-methyl-4-(methyl(7H-pyrrolo[2,3-d]pyrimidin-4-yl)amino)cyclohexyl)methylsulfonyl)pyrrolidin-3-yl)methanol]"
–,0.00777,0.302,"CN(c1ncnc2[nH]ccc12)[C@H]1CC[C@H](CS(=O)(=O)N2CCC(C)(O)C2)CC1 (stereo partly drawn) [Example 137, 3-methyl-1-[({trans-4-[methyl(7H-pyrrolo[2,3-d]pyrimidin-4-yl)amino]cyclohexyl}methyl)sulfonyl]pyrrolidin-3-ol]"
–,22.7,346,"CN(c1ncnc2[nH]ccc12)[C@H]1CC[C@H](CS(=O)(=O)N2CC(c3cccnc3)C2)CC1 [Example 111, N-methyl-N-(trans-4-{[(3-pyridin-3-ylazetidin-1-yl)sulfonyl]methyl}cyclo-hexyl)-7H-pyrrolo[2,3-d]pyrimidin-4-amine]"
16.8,6.31,–,"CCOCCO[C@@H]1CCN(S(=O)(=O)C[C@H]2CC[C@H](N(C)c3ncnc4[nH]ccc34)CC2)C1 [Example 28, N-[trans-4-({[(3R)-3-(2-ethoxyethoxy)pyrrolidin-1-yl]sulfonyl}methyl)-cyclohexyl]-N-methyl-7H-pyrrolo[2,3-d]pyrimidin-4-amine]"
–,4.73,813,"CN(c1ncnc2[nH]ccc12)[C@H]1CC[C@H](CS(=O)(=O)N2CCC[C@H]2CN2CCCC2)CC1 [Example 108, N-methyl-N-[trans-4-({[(2S)-2-(pyrrolidin-1-ylmethyl)pyrrolidin-1-yl]sulfonyl}methyl)cyclo-hexyl]-7H-pyrrolo[2,3-d]pyrimidin-4-amine]"
–,22.8,673,"CC[C@H](O)C1CCN(S(=O)(=O)C[C@H]2CC[C@H](N(C)c3ncnc4[nH]ccc34)CC2)CC1 [Example 53, 1-{1-[({trans-4-[methyl(7H-pyrrolo[2,3-d]pyrimidin-4-yl)amino]cyclohexyl}-methyl)sulfonyl]piperidin-4-yl}propan-1-ol]"
–,7.41,42.9,"C[C@@H]1C[C@@H](CS(=O)(=O)N2CCC(CO)CC2)CC[C@@H]1N(C)c1ncnc2[nH]ccc12 [Example 130, {1-[({(1S,3R,4S)-3-methyl-4-[methyl(7H-pyrrolo[2,3-d]pyrimidin-4-yl)amino]cyclohexyl}-methyl)sulfonyl]piperidin-4-yl}methanol]"
–,8.34,322,"CN(c1ncnc2[nH]ccc12)[C@H]1CC[C@H](CS(=O)(=O)N2CC[C@](C)(O)C2)CC1 [Example 99, 3-methyl-1-[({trans-4-[methyl(7H-pyrrolo[2,3-d]pyrimidin-4-yl)amino]cyclohexyl}methyl)-sulfonyl]pyrrolidin-3-ol]"
